From patent US5691338A, “1,2-dithiole-3 thiones for the treatment of reverse transcriptase-dependent viral infections” (priority 1995, dated 1997)
Counter-ions that a name gives are not always drawn. Like-named read-outs stand apart in the source and are kept apart here. Values belong to the compound of their own block, whether it stands above or below them.

Experiments:
[1] = test system: HIV-1 (HTLVIIIB); test: microbe, parasite or virus in culture; assay type: cell-based; conditions: H9 cells; for IC50: Human immunodeficiency virus 1
Description: (§3) The effects for test compounds were assessed by means of both IFA and p24 release. In general, the following protocol was followed: H9 cells were infected with HIV-1 at 1000 50% infective doses of viruses/10^6 cells. Virus was allowed to adsorb for 1 h, after which unadsorbed virus was removed by centrifugation. The cells were resuspended and washed twice with PBS (without Ca^+2 or Mg^+2 salts) and centrifuged to collect the cell pellet (150×g×10 min). Cells were suspended in fresh medium and added at a final cell density of 500,000 cells/ml in a 96-well plate with media containing 0.1% DMSO and various concentrations of test compounds. The cells were re-fed freshly prepared media containing 0.1% DMSO±test compounds on day four (for preinduction experiments, cells were exposed to inducers on days -2, 0, and +4 days relative to infection). After seven days, cells were examined for cytoxicity by trypan blue exclusion, the degree of infection with HIV-1 by IFA, and the supernatants were assayed for p24 levels according to the manufacturer's directions. The IFA procedure can be summarized as follows: The cells were washed twice in PBS and were placed in 5 mm 12-well slides. After allowing the slides to dry and fixing the cells with acetone for 5 min, 10 μl of HIV-1 positive serum in 40 μl PBS was added to each well and allowed to incubate at 37° C. for 30 min. After incubation, the slides were washed twice with PBS and incubated at 37° C. for 30 min with 2.5 μl goat anti-human IgG-fluorescein isothiocyanate conjugate in 50 μl PBS containing 0.01% Evans Blue per well. The slides were then washed twice with PBS, dried, and mounted with 50% glycerol in PBS, and scored for the percentage of fluorescent cells by fluorescent microscopy.

[2] = test system: glutathione levels (GSH) in H9 cells; test: Elevation of glutathione (GSH) levels in H9 cells; assay type: cell-based, human; conditions: for elevation of GSH: dose- and time-dependent, H9 cells; for fold induction at 30 µM / fold induction at 60 µM / fold induction at 120 µM: Homo sapiens, read-out: Glutathione levels, treated to control value
Description: (§1) Five ml of medium was added to T-25 flasks and DMSO containing tests compounds were added to a final concentration of 0.1%. Control medium contained 0.1% DMSO. After the drugs were added, 5×10^6 cells in 5 ml of medium was added to each T-25 flask. The cells were grown at 37° C. in a humidified incubator supplemented with 5% CO2 until harvested (N=3 flasks/group). At the indicated times, cells were isolated by centrifugation (500×g×10 min) and were washed three times by adding 10 ml of ice-cold DPBS, mixing, and centrifuging in a refrigerated centrifuge (500×g×10 min) to isolate the cell pellets. The cells were then lysed by the addition of 400 μl of ice-cold DPBS containing 0.5% Triton X-100 and vortexing. Supernatants were then isolated by centrifuging the lysates (5000×g×20 min). Samples were kept on ice or refrigerated until the reagents for QR or GSH spectrophotometric assays were added to the aliquoted microtiter plates. QR levels were determined by aliquoting 10 μl/well of supernatant in a 96-well plate and measuring the activity by the assay described by Prochaska and Santamaria (20) except that the final NADP^+ concentration was 200 μM (21). Samples were assayed in quadruplicate, and dicoumarol inhibitable-rates (which generally represented less than 5% of the total rate) were also measured. Spectrophotometric blanks contained 10 μl of DPBS with 0.5% Triton X-100. For the GSH assay, 300 μl of sample was placed in a centricon-10microconcentrator and centrifuged (5000×g×45 min) until enough ultrafiltrate could be collected. 50 μl/well of sample in quadruplicate was placed in a 96 well "half-area" plate after which 20 μl of 1 mM Ellman's reagent dissolved in DPBS was added. The yellow color (22) developed within 5 min and was scanned with a uvmax microtiter scanner (Palo Alto, Calif.) at 405 nm. Spectrophotometric blanks contained 50 μl DPBS with 0.5% Triton X-100 and 20 μl of 1 mM Ellman's reagent in DPBS. The optical densities of the specimens were calibrated to a GSH standard curve. Protein contents were determined in 3 ml cuvettes by the Bradford method (23). The protein content in the ultrafiltrates employed for GSH determinations were negligible (<0.01 mg/ml).

[3] = test system: quinone reductase (QR) in H9 cells; test: Elevation of quinone reductase (QR) in H9 cells; assay type: cell-based, human; conditions: for elevation of QR: dose- and time-dependent, H9 cells; for fold induction at 30 µM / fold induction at 60 µM / fold induction at 120 µM: Homo sapiens, read-out: Quinone reductase, treated to control value
Description: as §1
We confirmed that the induction of QR in microtiter wells mirrored our results in T-25 flasks by using the method of Prochaska and Santamaria (20). Medium (100 μl) containing 0.1% final concentration DMSO was added to all wells except columns designated to contain the highest concentration of drug or spectrophotometric blanks in duplicate sets of U-bottomed microtiter plates. 200 μl of media containing drug (final DMSO concentration=0.1%) was added to the empty column of wells and then diluted in 2-fold serial dilutions across. After the serial dilutions were performed, 100 μl of media containing 1×10^6 cells/ml was added to each well, and the plates were placed in a 37° C. incubator for 48 h. One set of plates was assayed as described (21) for QR activity, the other was assayed for cell number by the method for Alley et al. (24).

[4] = test system: H9 cells; test: Cytotoxicity in H9 cells by trypan blue exclusion; assay type: cell-based, human
Description: as §3

[5] = target: T1, HIV-1 reverse transcriptase (RT) (Human immunodeficiency virus type 1 group M subtype B, UniProt P04585); test: Inhibition of recombinant HIV-1 reverse transcriptase (TTP incorporation); assay type: biochemical
T1 construct: Recombinant HIV-1 reverse transcriptase (RT) was obtained from Worthington (Freehold, N.J.); purchased Worthington (Freehold, N.J.)
Description: (§2) Reverse transcriptase assays were performed as described by Flexner, et al. (25) using recombinant HIV-1 RT as the source of enzyme. Dilutions and assay were carried out in 96-well "half-area" plates. The enzyme with various concentrations of test compounds were dissolved in DPBS containing 1% w/v BSA and diluted in 50 μl volumes; 10 μl aliquots in triplicate were transferred to another plate for the enzyme assay. The reactions were initiated by the addition of 25 μl/well of buffer containing 50 mM Tris.cndot.Cl (pH 8.0), 75 mM KCl, 1 mM dithiothreitol, 2 mM MgCl2, 5 μg/ml poly(A), 2.5 μg/ml oligo (dT), 10 μCi/ml ^32 p TTP with or without unlabeled TTP. […] TTP incorporation was measured by spotting 20 μl of the reaction cocktail onto DE81 paper, washing the paper with 4×5 min washes of 300 mM NaCl and 30 mM sodium citrate (pH 7.0), drying the paper, and counting the paper by liquid scintillation counting. The assays performed with oltipraz and 1,2-dithiole-3-thione contained 0.29% final concentration DMSO. This concentration of DMSO had no effect on RT activity.

[6] = target: T1, HIV-1 reverse transcriptase (RT); test: Time-dependent (irreversible) inhibition of HIV-1 reverse transcriptase after preincubation; assay type: biochemical; conditions: kinetic behaviour
Description: FIG. 6. […] RT was preincubated for the times indicated with oltipraz dissolved in DPBS containing 1 mg/ml bovine serum albumin, 0.13% DMSO, and either 4 μM TTP or 5 μg/ml poly(A):2.5 μg/ml oligo(dT). After incubation, 10 μl aliquots in triplicate were added to 25 μl of a reaction cocktail containing 4 μM TTP, 5 μg/ml poly(A), and 2.5 μg/ml oligo(dT) and assayed for TTP incorporation into DNA over 30 min. as described by Flexner, et al. (25). The insets are Kitz-Wilson transformations (41).
as §2, with “DMSO.” for “DMSO. This concentration of DMSO had no effect on RT activity.”

[7] = Exp 1, IFA, read-out: IC50 HIV-1 replication (Exp 1)
[8] = Exp 2, IFA, read-out: IC50 HIV-1 replication (Exp 2)

IC50 [1, 7]: 1 µM
IC50 [1, 8]: 4 µM
Compound: CCOC(=O)c1c(-c2ccccn2)ssc1=S [compound 16]

IC50 [1, 7]: 0.4 µM
IC50 [1, 8]: 0.2 µM
Compound: OCc1c(-c2cnccn2)ssc1=S [compound 13]

IC50 HIV-1 replication (Exp 2) ([1]; Exp 2, IFA): Inactive
IC50 [1, 7]: 10 µM
Compound: Cc1c(-c2cccnc2)ssc1=S [compound 6]

IC50 [1, 7]: > 60 µM
IC50 [1, 8]: > 60 µM
Compound: CCOC(=O)Cc1c(-c2cncnc2)ssc1=S [compound 20]

IC50 [1, 7]: 15 µM
IC50 [1, 8]: 15 µM
Compound: CCc1c(-c2cnccn2)ssc1=S [compound 14]

IC50 [1, 7]: 15 µM
IC50 [1, 8]: > 60 µM
Compound: CCOC(=O)c1c(-c2ccncc2)ssc1=S [compound 17]

IC50 [1, 7]: 1 µM
IC50 [1, 8]: > 60 µM
Compound: CC(C)N(C(=O)Cc1c(-c2cncnc2)ssc1=S)C(C)C [compound 21]

IC50 [1, 7]: 2 µM
IC50 [1, 8]: 2 µM
Compound: CCCCc1c(-c2cnccn2)ssc1=S [compound 15]

The remaining lines, values behind:

Compound: Cc1c(-c2ccccn2)ssc1=S [compound 5]
IC50 [1, 7]: 3 µM
IC50 [1, 8]: 10 µM

Compound: Cc1c(-c2cnccn2)ssc1=O [compound 12]
IC50 HIV-1 replication (Exp 2) ([1]; Exp 2, IFA): Inactive
IC50 [1, 7]: 10 µM

Compound: Cc1c(C=Cc2cnccn2)ssc1=S [compound 10]
IC50 [1, 7]: > 60 µM
IC50 [1, 8]: > 60 µM

Compound: CN(C)CCCON=c1cc(-c2ccncc2)ss1 [compound 23]
IC50 [1, 7]: 0.4 µM
IC50 [1, 8]: > 60 µM

Compound: COC(=O)/C=C/C(=O)OC [dimethyl fumarate]
elevation of GSH [2]: able to elevate both GSH and QR levels
elevation of QR [3]: able to elevate both GSH and QR levels
inhibition of HIV-1 replication ([1]; up to 60 μM): inactive
cytotoxicity at optimal inductive doses [4]: non-cytotoxic

Compound: Cc1c(-c2cccnn2)ssc1=S [compound 8]
IC50 [1, 7]: 2 µM
IC50 [1, 8]: 4 µM

Compound: Cc1ncc(-c2cc(=S)ss2)nc1C [compound 4]
IC50 HIV-1 replication (Exp 1) ([1]; Exp 1, IFA): Inactive
IC50 HIV-1 replication (Exp 2) ([1]; Exp 2, IFA): Inactive

Compound: O=c1cc(-c2cnccn2)ss1 [compound 3]
IC50 HIV-1 replication (Exp 2) ([1]; Exp 2, IFA): Inactive
IC50 [1, 7]: 4 µM

Compound: S=c1ccss1 [1,2-dithiole-3-thione]
Glutathione Levels ([2]; 48 h, 30 μM): 53.5 ± 7.1 nmol/mg
Glutathione Levels ([2]; 48 h, 60 μM): 57.5 ± 1.3 nmol/mg
Glutathione Levels ([2]; 48 h, 120 μM): 74.9 ± 3.6 nmol/mg
Glutathione Levels ([2]; 96 h, 30 μM): 59.4 ± 1.4 nmol/mg
Glutathione Levels ([2]; 96 h, 60 μM): 65.0 ± 2.1 nmol/mg
Glutathione Levels ([2]; 96 h, 120 μM): 109 ± 28 nmol/mg
fold induction at 30 µM ([2]; H9, 48 h): 1.17
fold induction at 60 µM ([2]; H9, 48 h): 1.26
fold induction at 120 µM ([2]; H9, 48 h): 1.63
fold induction at 30 µM ([2]; H9, 96 h): 1.17
fold induction at 60 µM ([2]; H9, 96 h): 1.71
fold induction at 120 µM ([2]; H9, 96 h): 2.15
elevation of GSH [2]: able to elevate both GSH and QR levels
Quinone Reductase Specific Activity ([3]; 48 h, 30 μM): 232 ± 16 nmol/min/mg
Quinone Reductase Specific Activity ([3]; 48 h, 60 μM): 244 ± 12.1 nmol/min/mg
Quinone Reductase Specific Activity ([3]; 48 h, 120 μM): 299 ± 11 nmol/min/mg
Quinone Reductase Specific Activity ([3]; 96 h, 30 μM): 59.4 ± 1.4 nmol/min/mg
Quinone Reductase Specific Activity ([3]; 96 h, 60 μM): 65.0 ± 2.1 nmol/min/mg
Quinone Reductase Specific Activity ([3]; 96 h, 120 μM): 109 ± 28 nmol/min/mg
fold induction at 30 µM ([3]; H9, 48 h): 1.61
fold induction at 60 µM ([3]; H9, 48 h): 1.67
fold induction at 120 µM ([3]; H9, 48 h): 2.07
fold induction at 30 µM ([3]; H9, 96 h): 1.17
fold induction at 60 µM ([3]; H9, 96 h): 1.71
fold induction at 120 µM ([3]; H9, 96 h): 2.15
elevation of QR [3]: able to elevate both GSH and QR levels
inhibition of HIV-1 replication ([1]; up to 120 μM): inactive
cytotoxicity at optimal inductive doses ([4]; up to 30 μM (tert-butylhydroquinone), 120 μM (1,2-dithiole-3-thione), 60 μM (dimethyl fumarate)): non-cytotoxic
inhibition of recombinant HIV-1 reverse transcriptase ([5]; poly(A):oligo(dT) and TTP as substrates): inactive

Compound: Cc1cn([C@H]2C[C@H](N=[N+]=[N-])[C@@H](COP(=O)(O)OP(=O)(O)OP(=O)(O)O)O2)c(=O)[nH]c1=O [AZT triphosphate, 3'-azido-3'-deoxythymidine-5'-triphosphate]
potency relative to oltipraz (reverse transcriptase) ([5]; identical assay conditions): approximately 1000 fold

Compound: Cc1c(-c2cccs2)ssc1=S [compound 9, 4-methyl-5-(2-thiofuranyl)-1,2-dithiole-3-thione]
IC50 [1, 7]: 0.4 µM
IC50 [1, 8]: 2 µM
IC50 ([1]; N=5 independent experiments, IFA, read-out: IC50 HIV-1 replication): 1.8 ± 0.7 µM
irreversible inhibition of reverse transcriptase [6]: behaves kinetically as an irreversible inhibitor of reverse transcriptase

Compound: CCCCc1c(-c2ccc(N(C)C)nn2)ssc1=S [compound 24]
IC50 HIV-1 replication (Exp 1) ([1]; Exp 1, IFA): Inactive
IC50 HIV-1 replication (Exp 2) ([1]; Exp 2, IFA): Inactive

Compound: Cc1c(-c2ccncc2)ssc1=S [compound 7]
IC50 [1, 7]: 60 µM
IC50 [1, 8]: 60 µM

Compound: S=c1cc(-c2ccccc2)ss1 [compound 1]
IC50 HIV-1 replication (Exp 1) ([1]; Exp 1, IFA): Inactive
IC50 HIV-1 replication (Exp 2) ([1]; Exp 2, IFA): Inactive

Compound: S=c1ssc(-c2cccnn2)c1CCc1ccccc1 [compound 22]
IC50 [1, 7]: 0.4 µM
IC50 [1, 8]: > 60 µM

Compound: COc1ccc(-c2cc(=S)ss2)cc1 [compound 2]
IC50 HIV-1 replication (Exp 1) ([1]; Exp 1, IFA): Inactive
IC50 HIV-1 replication (Exp 2) ([1]; Exp 2, IFA): Inactive

Compound: CC(C)c1ccc(Nc2ssc(=O)c2Cl)cc1 [compound 19]
IC50 [1, 7]: > 60 µM
IC50 [1, 8]: 1 µM

Compound: CC(C)(C)c1cc(O)ccc1O [tert-butylhydroquinone]
elevation of GSH [2]: able to elevate both GSH and QR levels
elevation of QR [3]: able to elevate both GSH and QR levels
inhibition of HIV-1 replication ([1]; up to 30 μM): inactive
cytotoxicity at optimal inductive doses [4]: non-cytotoxic

Compound: CC(C)c1ccc(Nc2ssc(=S)c2Cl)cc1 [compound 18]
IC50 [1, 7]: 0.4 µM
IC50 [1, 8]: > 60 µM
